# Experimental data from patent US11104593B2, “Compositions exhibiting synergy in biofilm control” (SOLENIS TECHNOLOGIES, L.P., priority 2017, dated 2021).
# Tested on: Pseudomonas putida biofilms
# Assay: Biofilm eradication (MBEC) test: viable plate counts of biofilms on stainless steel 316 coupons from a CDC Biofilm reactor after two hours of treatment
# Assay type: cell-based
# Conditions: 20 mg/L MCA alone, viable biofilm population vs untreated control, 2 h, 28° C.
# Method: In this work the efficacy of the agents alone and in combination were determined by measuring the number of viable cells in model biofilms remaining after treatment. The Minimum Biofilm Eradication value (MBEC) is defined as a 95% reduction in the number of viable cells compared to the untreated control.
# Dose response studies were performed to determine the Minimum Biofilm Eradication Concentration (MBEC) for monochloramine and PEI alone. The MBEC is defined as the concentration of agent that reduces the viable biofilm population by 95% of the untreated control value as measured by viable plate counts. Experiments were then performed to determine the result of combining the two agents, oxidizing biocide monochloramine and dispersant PEI alone, on biofilm populations. The experiments examined three concentrations of monochloramine with four concentrations of PEI alone.
# M9YG media is a simple minimal salt medium supplemented with 500 mg/L glucose and 0.01% yeast extract. The salts composition was intended to mimic a typical cooling tower water composition. […]
# Briefly, biofilms were grown on stainless steel 316 coupons in a CDC Biofilm reactor using M9YG minimal salts growth media for a period of twenty-four hours. […] Viable cells released into the fluid were then determined by a plating method.
smiles,measurement,setting,value
"NCl [MCA, monochloramine]",% reduction,,93.58%
same,% reduction,listed as monochloramine,greater than 90%
